Assay results from PubChem BioAssay (NCI).
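These data come from cells grown in 96-well plates and exposed to compound for 48 hours at five concentrations. GI50 = concentration required for 50% inhibition of growth. The concentration for full growth arrest is given as TGI.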

Key:
Test in all cases: NCI-60 cell line screen, 48 h
[1] = test system: MDA-MB-468 breast
[2] = test system: MCF7 breast
[3] = test system: OVCAR-8 ovarian
[4] = test system: HT29 colon
[5] = test system: MOLT-4 leukemia
[6] = test system: SK-MEL-28 melanoma
[7] = test system: HCT-15 colon
[8] = test system: SR leukemia
[9] = test system: SNB-75 CNS
[10] = test system: K-562 leukemia
[11] = test system: 786-0 renal
[12] = test system: SF-268 CNS
[13] = test system: COLO 205 colon
[14] = test system: IGROV1 ovarian
[15] = test system: A549 NSCLC
[16] = test system: SK-MEL-2 melanoma
[17] = test system: CCRF-CEM leukemia
[18] = test system: KM12 colon
[19] = test system: HCT-116 colon
[20] = test system: HL-60(TB) leukemia
[21] = test system: MALME-3M melanoma
[22] = test system: HCC-2998 colon
[23] = test system: NCI-H460 lung
[24] = test system: HS 578T breast
[25] = test system: HOP-62 NSCLC
[26] = test system: SK-OV-3 ovarian
[27] = test system: SK-MEL-5 melanoma
[28] = test system: LOX IMVI melanoma
[29] = test system: TK-10 renal
[30] = test system: A498 renal
[31] = test system: T-47D breast
[32] = test system: OVCAR-3 ovarian
[33] = test system: SF-295 CNS
[34] = test system: UACC-62 melanoma
[35] = test system: NCI-H226 lung
[36] = test system: MDA-MB-231 breast
[37] = test system: PC-3 prostate
[38] = test system: DU-145 prostate
[39] = test system: NCI/ADR-RES ovarian
[40] = test system: MDA-MB-435
[41] = test system: SN12C renal
[42] = test system: NCI-H23 lung
[43] = test system: BT-549 breast
[44] = test system: SF-539 CNS
[45] = test system: NCI-H522 lung
[46] = test system: EKVX NSCLC
[47] = test system: RXF 393 renal
[48] = test system: RPMI-8226 leukemia
[49] = test system: M14 melanoma
[50] = test system: OVCAR-5 ovarian
[51] = test system: UACC-257 melanoma
[52] = test system: UO-31 renal
[53] = test system: SNB-19 CNS
[54] = test system: CAKI-1 renal
[55] = test system: OVCAR-4 ovarian
[56] = test system: SW-620 colon
[57] = test system: U251 CNS
[58] = test system: HOP-92 NSCLC
[59] = test system: ACHN renal

O=C(N=Nc1c(O)[nH]c2ccc(Br)cc12)c1ccc2nc(-c3ccc(Cl)cc3)[nH]c2c1
GI50 [1]: 8.03 µM | TGI [1]: 37.9 µM | GI50 [2]: 8.14 µM | TGI [2]: > 38 µM | GI50 [3]: 29.7 µM | TGI [3]: > 38 µM | GI50 [4]: 15.2 µM | TGI [4]: > 38 µM | GI50 [5]: 11.1 µM | TGI [5]: > 38 µM | GI50 [6]: > 38 µM | TGI [6]: > 38 µM | GI50 [7]: > 38 µM | TGI [7]: > 38 µM | GI50 [8]: > 38 µM | TGI [8]: > 38 µM | GI50 [9]: 8.44 µM | TGI [9]: > 38 µM | GI50 [10]: 16.8 µM | TGI [10]: > 38 µM | GI50 [11]: 29.6 µM | TGI [11]: > 38 µM | GI50 [12]: 10.8 µM | TGI [12]: > 38 µM | GI50 [13]: 26.2 µM | TGI [13]: > 38 µM | GI50 [14]: > 38 µM | TGI [14]: > 38 µM | GI50 [15]: > 38 µM | TGI [15]: > 38 µM | GI50 [16]: > 38 µM | TGI [16]: > 38 µM | GI50 [17]: 8.77 µM | TGI [17]: > 38 µM | GI50 [18]: > 38 µM | TGI [18]: > 38 µM | GI50 [19]: 15.2 µM | TGI [19]: > 38 µM | GI50 [20]: > 38 µM | TGI [20]: > 38 µM | GI50 [21]: > 38 µM | TGI [21]: > 38 µM | GI50 [22]: 32.6 µM | TGI [22]: > 38 µM | GI50 [23]: 21.7 µM | TGI [23]: > 38 µM | GI50 [24]: > 38 µM | TGI [24]: > 38 µM | GI50 [25]: > 38 µM | TGI [25]: > 38 µM | GI50 [26]: > 38 µM | TGI [26]: > 38 µM | GI50 [27]: > 38 µM | TGI [27]: > 38 µM | GI50 [28]: 11.3 µM | TGI [28]: > 38 µM | GI50 [29]: > 38 µM | TGI [29]: > 38 µM | GI50 [30]: > 38 µM | TGI [30]: > 38 µM | GI50 [31]: 11.8 µM | TGI [31]: > 38 µM | GI50 [32]: > 38 µM | TGI [32]: > 38 µM | GI50 [33]: > 38 µM | TGI [33]: > 38 µM | GI50 [34]: > 38 µM | TGI [34]: > 38 µM | GI50 [35]: > 38 µM | TGI [35]: > 38 µM | GI50 [36]: > 38 µM | TGI [36]: > 38 µM | GI50 [37]: > 38 µM | TGI [37]: > 38 µM | GI50 [38]: 29.6 µM | TGI [38]: > 38 µM | GI50 [39]: > 38 µM | TGI [39]: > 38 µM | GI50 [40]: 29.6 µM | TGI [40]: > 38 µM | GI50 [41]: > 38 µM | TGI [41]: > 38 µM | GI50 [42]: 34 µM | TGI [42]: > 38 µM | GI50 [43]: > 38 µM | TGI [43]: > 38 µM | GI50 [44]: > 38 µM | TGI [44]: > 38 µM | GI50 [45]: > 38 µM | TGI [45]: > 38 µM | GI50 [46]: > 38 µM | TGI [46]: > 38 µM | GI50 [47]: > 38 µM | TGI [47]: > 38 µM | GI50 [48]: > 38 µM | TGI [48]: > 38 µM | GI50 [49]: > 38 µM | TGI [49]: > 38 µM | GI50 [50]: > 38 µM | TGI [50]: > 38 µM | GI50 [51]: > 38 µM | TGI [51]: > 38 µM | GI50 [52]: > 38 µM | TGI [52]: > 38 µM | GI50 [53]: 17.1 µM | TGI [53]: > 38 µM | GI50 [54]: > 38 µM | TGI [54]: > 38 µM | GI50 [55]: 12 µM | TGI [55]: > 38 µM | GI50 [56]: 14.5 µM | TGI [56]: > 38 µM | GI50 [57]: 19.9 µM | TGI [57]: > 38 µM | GI50 [58]: > 38 µM | TGI [58]: > 38 µM | GI50 [59]: > 38 µM | TGI [59]: > 38 µM
